Source: US9493468B2, “Antifungal 5,6-dihydro-4H-pyrrolo[1,2-a][1,4]benzo-diazepines and 6H-pyrrolo[1,2-a][1,4]benzodiazepines substituted with heterocyclic derivatives” (Janssen Pharmaceutica NV, priority 2011, dated 2016)

Experiments:
Type in all cases: cell-based
Microsporum canis = assay: Antifungal activity in vitro, resazurin growth inhibition: Microsporum canis (B68128)
How it was run: (§1)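 Resazurin conversion to fluorescent resorufin (ex 550/em 590 nm) served as the growth readout. Compounds spanned 2- or 4-fold serial dilutions with 64 μM top in-test concentration; inoculum 10^3 cfu per well in MOPS-buffered RPMI-1640 (pH 7.0, 2% glucose). Incubation species-dependent, dermatophytes at 27° C. for ≥1 week.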

[1] = tested on: Trichophyton mentagrophytes; assay: Antifungal activity in vitro, resazurin growth inhibition: Trichophyton mentagrophytes (B70554)
How it was run: as §1

Trichophyton rubrum = assay: Antifungal activity in vitro, resazurin growth inhibition: Trichophyton rubrum (B68183)
How it was run: as §1

Sporothrix schenkii = assay: Antifungal activity in vitro, resazurin growth inhibition: Sporothrix schenkii (B62482)
How it was run: (§2)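 Compound dilutions, with 64 μM as the highest in-test level, are spotted onto plates, then an inoculum of 10^3 cfu in RPMI-1640 plus 2% glucose (MOPS, pH 7.0±0.1) is added. Plates are incubated at species-dependent time and temperature, up to a week or more at 27° C. for dermatophytes.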

Aspergillus fumigatus = assay: Antifungal activity in vitro, resazurin growth inhibition: Aspergillus fumigatus (B42928)
How it was run: as §2

Candida parapsilosis = assay: Antifungal activity in vitro, resazurin growth inhibition: Candida parapsilosis (B66126)
How it was run: as §2

Cryptococcus neoformans = assay: Antifungal activity in vitro, resazurin growth inhibition: Cryptococcus neoformans (B66663)
How it was run: as §2

Scedosporium apiospermum = assay: Antifungal activity in vitro, resazurin growth inhibition: Scedosporium apiospermum (IHEM3817)
Experimental: (§3) The standard susceptibility screen is performed in 96-well plates (U-bottom, Greiner Bio-One). Serial dilutions (2-fold or 4-fold) of 20 mM compound stock solutions are made in 100% DMSO, followed by an intermediate dilution step in water. These serial dilutions (10 μl) are then spotted onto test-plates that can be stored in the dark at 4° C. for a maximum period of 2 weeks. An adequate broad dose-range is included with 64 μM as the highest in-test concentration. The culture medium RPMI-1640 is supplemented with L-glutamine, 2% glucose and buffered with 3-(N-morpholino)-propanesulfonic acid (MOPS) at pH 7.0±0.1.
(§4) The different fungal species/isolates (Table 3a) are cryopreserved and 1/1000 diluted in medium just prior to use. A standard inoculum of 200 μl containing 10^3 colony-forming unit (cfu) is then added to each well. A positive control (100% growth=fungal culture without antifungal) and a negative control (0% growth ═RPMI-MOPS medium) are included on each plate. Optimal incubation time and temperature are dependent on the fungal species and vary from 24 h for yeasts (37° C.) to one week or more for dermatophytes (27° C.). Inhibition of fungal growth is measured after adding 10 μl of 0.005% (w/v) resazurin (Sigma Aldrich) to each well, based on the principle that living cells convert the non-fluorescent blue resazurin into the pink and fluorescent resorufin, allowing fluorimetric reading (λex 550 nm and λem 590 nm) after an additional incubation period (‘resa’ time mentioned in Table 3a).

Scedosporium prolificans = assay: Antifungal activity in vitro, resazurin growth inhibition: Scedosporium prolificans (IHEM21157)
Experimental: as §3, §4

| SMILES | Inf. B: Microsporum canis B68128, pIC50 (Microsporum canis) | Inf. G: Trichophyton mentagrophytes B70554, pIC50 [1] | Inf. C: Trichophyton rubrum B68183, pIC50 (Trichophyton rubrum) | Inf. A: Sporothrix schenkii B62482, pIC50 (Sporothrix schenkii) | Inf. E: Aspergillus fumigatus B42928, pIC50 (Aspergillus fumigatus) | Inf. D: Candida parapsilosis B66126, pIC50 (Candida parapsilosis) | Inf. F: Cryptococcus neoformans B66663, pIC50 (Cryptococcus neoformans) | Inf. H: Scedosporium apiospermum IHEM3817, pIC50 (Scedosporium apiospermum) | Inf. I: Scedosporium prolificans IHEM21157, pIC50 (Scedosporium prolificans) |
| --- | --- | --- | --- | --- | --- | --- | --- | --- | --- |
| COc1cccc2cc(C3=NCc4ccccc4-n4cccc43)oc12 [Compound 157] | 5.79 | 5.96 | 6.58 | <4.49 | <4.49 | 4.61 | <4.49 |  |  |
| Clc1cc2oc(C3=NCc4c(Cl)cccc4-n4cccc43)cc2cn1 [Compound 159] | 6.41 | <4.49 | 6.46 | <4.49 | <4.49 | <4.49 | <4.49 |  |  |
| Cc1nc(Cl)cc2cc(C3=NCc4c(Cl)cccc4-n4cccc43)oc12 [Compound 160] | 5.03 | 5.48 | 5.84 | <4.49 | 5.85 | <4.49 | 5.61 |  |  |
| Cc1nc2ccc(C3=NCc4c(Cl)cccc4-n4cccc43)cc2o1 [Compound 162] | 5.23 | 5.21 | 5.61 | 4.22 | 4.36 | <4.19 | 4.49 |  |  |
| Cc1ccc(Cl)c2c1-n1cccc1C(c1cc3ccccc3s1)=NC2 [Compound 169] | 5.00 | <4.19 | 6.01 | <4.19 | <4.19 | <4.19 | <4.19 |  |  |
| Fc1cccc2cc(C3=NCc4c(Cl)cc(Cl)cc4-n4cccc43)sc12 [Compound 171] | <4.19 | <4.19 | 5.73 | <4.19 | <4.19 | <4.19 | 6.50 |  |  |
| Clc1cccc2c1CN=C(c1ccc3scc(Cl)c3c1)c1cccn1-2 [Compound 177] | <4.19 | <4.19 | <4.19 | <4.19 | <4.19 | <4.19 | 5.73 |  |  |
| Clc1ccc2c(c1)-n1cccc1C(c1ccc3scc(Cl)c3c1)=NC2 [Compound 178] | <4.19 | 4.26 | 4.37 | <4.19 | 5.93 | <4.19 | 6.49 |  |  |
| Clc1cccc2c1-n1cccc1C(c1ccc3scc(Cl)c3c1)=NC2 [Compound 179] | 4.80 | 4.69 | 5.03 | 4.41 | 4.49 | <4.19 | 4.67 |  |  |
| Clc1cccc2c1CN=C(c1nc3ccccc3s1)c1cccn1-2 [Compound 180] | 4.40 | 4.39 | 6.03 | <4.19 | <4.19 | <4.19 | <4.19 |  |  |
| Cl.Clc1cccc2c1CN=C(c1nc3ccccc3s1)c1cccn1-2 [Compound 181] | 5.69 | 4.98 | 5.94 | <4.19 | <4.19 | <4.19 | <4.19 |  |  |
| c1ccc2c(c1)CN=C(c1ccc3ncsc3c1)c1cccn1-2 [Compound 182] | 5.52 | 5.87 | 6.70 | <4.49 | 4.94 | 4.58 | 4.91 |  |  |
| Fc1cccc2c1CN=C(c1ccc3scnc3c1)c1cccn1-2 [Compound 189] | 5.29 | 5.52 | 6.05 | <4.19 | 5.02 | <4.19 | 5.06 |  |  |
| Fc1cc(F)c2c(c1)-n1cccc1C(c1ccc3scnc3c1)=NC2 [Compound 190] | 5.56 | 5.31 | 6.14 | <4.19 | <4.19 | <4.19 | 4.93 |  |  |
| Fc1cccc2c1CN=C(c1ccc3sc(C(F)(F)F)nc3c1)c1cccn1-2 [Compound 192] | <4.19 | 5.03 | 4.29 | <4.19 | <4.19 | <4.19 | 4.81 |  |  |
| FC(F)(F)c1nc2cc(C3=NCc4c(Cl)cccc4-n4cccc43)ccc2s1 [Compound 193] | <4.19 | <4.19 | <4.19 | <4.19 | <4.19 | <4.19 | <4.19 |  |  |
| Clc1cccc2c1CN=C(c1ccc3nsnc3c1)c1cccn1-2 [Compound 194] | <4.19 | 6.06 | 6.82 | <4.19 | <4.19 | <4.19 | <4.19 |  |  |
| Clc1cccc2c1CN=C(c1ccc3snnc3c1)c1cccn1-2 [Compound 195] | <4.19 | <4.19 | 6.34 | <4.19 | <4.19 | <4.19 | <4.19 |  |  |
| Clc1cccc2c1CN=C(c1ccc3ccccc3n1)c1cccn1-2 [Compound 197] | 6.00 | 5.33 | 6.00 | 5.00 | <4 | 4.00 | 5.00 | <4 | 5.00 |
| Clc1cccc2c1CN=C(c1ccncc1)c1cccn1-2 [Compound 198] | 4.00 | <4 | <4 | <4 | <4 | <4 | 5.00 | <4 | <4 |
| Clc1cccc2c1CN=C(c1cccnc1)c1cccn1-2 [Compound 199] | 4.50 | <4 | 5.00 | <4 | <4 | <4 | 5.00 | <4 | <4 |
